According to ChEMBL document CHEMBL1137276, “Discovery of potent, selective, and orally bioavailable oxadiazole-based dipeptidyl peptidase IV inhibitors” (Bioorg Med Chem Lett, 2006):

Legend:
Dipeptidyl peptidase 9 = Dipeptidyl peptidase 9 (Homo sapiens, UniProt Q86TI2); assay: Inhibition of DPP9
Dipeptidyl peptidase 8 = Dipeptidyl peptidase 8 (Homo sapiens, UniProt Q6V1X1); assay: Inhibition of DPP8
Dipeptidyl peptidase 2 = Dipeptidyl peptidase 2 (Homo sapiens, UniProt Q9UHL4); assay: Inhibition of QPP
Dipeptidyl peptidase 4 = Dipeptidyl peptidase 4 (Homo sapiens, UniProt P27487); assay: Inhibition of DPP4
Chain of Dipeptidyl peptidase 4 (P27487 whole entry): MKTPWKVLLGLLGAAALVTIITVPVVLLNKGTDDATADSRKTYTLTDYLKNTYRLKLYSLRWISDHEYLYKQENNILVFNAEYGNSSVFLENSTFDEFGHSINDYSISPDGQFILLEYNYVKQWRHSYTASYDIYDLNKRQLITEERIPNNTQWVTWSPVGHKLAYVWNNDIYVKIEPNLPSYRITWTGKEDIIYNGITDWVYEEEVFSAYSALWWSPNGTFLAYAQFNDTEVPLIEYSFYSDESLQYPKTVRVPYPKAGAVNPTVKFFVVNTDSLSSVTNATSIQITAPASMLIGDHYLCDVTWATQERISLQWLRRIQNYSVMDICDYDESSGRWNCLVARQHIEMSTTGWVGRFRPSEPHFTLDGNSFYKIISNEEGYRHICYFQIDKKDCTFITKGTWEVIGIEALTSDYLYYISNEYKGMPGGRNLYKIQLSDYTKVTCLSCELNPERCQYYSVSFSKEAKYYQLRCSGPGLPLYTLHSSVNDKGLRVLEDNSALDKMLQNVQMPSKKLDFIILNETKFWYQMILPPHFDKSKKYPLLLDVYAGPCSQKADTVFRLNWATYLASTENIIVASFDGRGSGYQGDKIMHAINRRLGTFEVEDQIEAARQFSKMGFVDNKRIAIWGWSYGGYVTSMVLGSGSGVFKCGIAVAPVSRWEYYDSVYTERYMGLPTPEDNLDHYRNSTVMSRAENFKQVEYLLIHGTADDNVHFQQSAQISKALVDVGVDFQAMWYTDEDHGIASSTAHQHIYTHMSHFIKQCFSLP

Homo sapiens = species on record: Homo sapiens; assay: Selectivity for DPP4 over QPP
[1] = Plasma clearance in rat at 1 mg/kg, iv and 2 mg/kg, po; assay type: ADME, organism-based
[2] = Half life in rat at 1 mg/kg, iv and 2 mg/kg, po; assay type: ADME, organism-based; conditions: in vivo
[3] = Oral bioavailability in rat at 1 mg/kg, iv and 2 mg/kg, po; assay type: ADME, organism-based; conditions: in vivo
[4] = target: Voltage-gated inwardly rectifying potassium channel KCNH2 (Homo sapiens, UniProt Q12809); assay: Inhibition of hERG potassium channel; assay type: toxicity
Chain of Voltage-gated inwardly rectifying potassium channel KCNH2 (Q12809 whole entry): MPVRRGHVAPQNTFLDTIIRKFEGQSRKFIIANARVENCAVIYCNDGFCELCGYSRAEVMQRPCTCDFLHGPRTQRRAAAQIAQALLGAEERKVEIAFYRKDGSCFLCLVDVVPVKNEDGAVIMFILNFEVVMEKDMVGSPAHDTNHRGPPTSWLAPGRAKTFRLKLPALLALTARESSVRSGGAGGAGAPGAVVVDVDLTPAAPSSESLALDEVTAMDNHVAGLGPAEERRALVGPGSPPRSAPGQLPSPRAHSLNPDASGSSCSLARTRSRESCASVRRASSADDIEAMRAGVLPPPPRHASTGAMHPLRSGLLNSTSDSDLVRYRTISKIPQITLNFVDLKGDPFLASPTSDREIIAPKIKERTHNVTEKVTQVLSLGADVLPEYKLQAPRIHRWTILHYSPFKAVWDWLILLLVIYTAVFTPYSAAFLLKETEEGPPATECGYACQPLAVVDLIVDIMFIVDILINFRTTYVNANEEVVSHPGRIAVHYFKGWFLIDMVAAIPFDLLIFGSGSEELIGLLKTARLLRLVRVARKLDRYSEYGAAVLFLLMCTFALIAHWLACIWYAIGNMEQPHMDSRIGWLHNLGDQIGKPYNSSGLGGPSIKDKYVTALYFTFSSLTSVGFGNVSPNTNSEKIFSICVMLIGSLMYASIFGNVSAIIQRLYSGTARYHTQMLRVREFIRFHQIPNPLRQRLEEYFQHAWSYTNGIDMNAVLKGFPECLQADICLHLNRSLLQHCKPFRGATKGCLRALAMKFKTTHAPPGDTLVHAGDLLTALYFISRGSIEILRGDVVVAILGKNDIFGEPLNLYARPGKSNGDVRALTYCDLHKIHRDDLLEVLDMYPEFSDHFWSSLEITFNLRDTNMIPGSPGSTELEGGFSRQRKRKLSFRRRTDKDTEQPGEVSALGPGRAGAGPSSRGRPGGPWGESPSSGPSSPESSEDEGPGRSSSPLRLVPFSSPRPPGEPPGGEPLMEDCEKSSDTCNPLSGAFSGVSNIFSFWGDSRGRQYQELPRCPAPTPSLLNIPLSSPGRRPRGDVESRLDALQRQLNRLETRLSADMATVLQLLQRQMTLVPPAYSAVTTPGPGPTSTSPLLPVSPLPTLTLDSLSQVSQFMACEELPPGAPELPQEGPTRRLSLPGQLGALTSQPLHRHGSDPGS

[5] = Oral bioavailability in dog; assay type: ADME, organism-based, Canis lupus familiaris; conditions: in vivo
[6] = Half life in dog; assay type: ADME, organism-based, Canis lupus familiaris; conditions: in vivo

Chain of Dipeptidyl peptidase 8 (Q6V1X1 whole entry): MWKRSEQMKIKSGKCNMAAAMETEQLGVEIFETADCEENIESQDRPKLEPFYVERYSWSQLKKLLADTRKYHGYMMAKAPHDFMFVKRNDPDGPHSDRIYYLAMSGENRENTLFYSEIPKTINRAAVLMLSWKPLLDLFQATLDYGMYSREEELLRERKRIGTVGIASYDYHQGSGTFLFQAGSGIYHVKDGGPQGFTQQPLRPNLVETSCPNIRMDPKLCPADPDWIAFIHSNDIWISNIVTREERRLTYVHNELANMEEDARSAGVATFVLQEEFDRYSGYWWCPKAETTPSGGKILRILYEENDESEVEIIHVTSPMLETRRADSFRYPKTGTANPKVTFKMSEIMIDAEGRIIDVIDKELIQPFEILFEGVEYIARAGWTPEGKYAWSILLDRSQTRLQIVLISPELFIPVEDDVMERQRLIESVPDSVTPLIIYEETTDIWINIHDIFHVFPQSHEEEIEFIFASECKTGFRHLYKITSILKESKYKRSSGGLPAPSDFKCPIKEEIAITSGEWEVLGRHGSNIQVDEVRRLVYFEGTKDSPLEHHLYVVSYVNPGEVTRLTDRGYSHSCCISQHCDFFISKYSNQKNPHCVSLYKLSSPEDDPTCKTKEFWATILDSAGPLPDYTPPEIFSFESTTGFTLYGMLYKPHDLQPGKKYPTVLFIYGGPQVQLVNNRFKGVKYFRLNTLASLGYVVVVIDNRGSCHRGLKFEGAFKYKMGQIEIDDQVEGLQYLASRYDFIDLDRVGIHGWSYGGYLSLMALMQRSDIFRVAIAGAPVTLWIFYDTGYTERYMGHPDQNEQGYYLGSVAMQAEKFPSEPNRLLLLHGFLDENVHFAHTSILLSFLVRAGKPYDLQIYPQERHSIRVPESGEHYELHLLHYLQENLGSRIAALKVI
Chain of Dipeptidyl peptidase 9 (Q86TI2 whole entry): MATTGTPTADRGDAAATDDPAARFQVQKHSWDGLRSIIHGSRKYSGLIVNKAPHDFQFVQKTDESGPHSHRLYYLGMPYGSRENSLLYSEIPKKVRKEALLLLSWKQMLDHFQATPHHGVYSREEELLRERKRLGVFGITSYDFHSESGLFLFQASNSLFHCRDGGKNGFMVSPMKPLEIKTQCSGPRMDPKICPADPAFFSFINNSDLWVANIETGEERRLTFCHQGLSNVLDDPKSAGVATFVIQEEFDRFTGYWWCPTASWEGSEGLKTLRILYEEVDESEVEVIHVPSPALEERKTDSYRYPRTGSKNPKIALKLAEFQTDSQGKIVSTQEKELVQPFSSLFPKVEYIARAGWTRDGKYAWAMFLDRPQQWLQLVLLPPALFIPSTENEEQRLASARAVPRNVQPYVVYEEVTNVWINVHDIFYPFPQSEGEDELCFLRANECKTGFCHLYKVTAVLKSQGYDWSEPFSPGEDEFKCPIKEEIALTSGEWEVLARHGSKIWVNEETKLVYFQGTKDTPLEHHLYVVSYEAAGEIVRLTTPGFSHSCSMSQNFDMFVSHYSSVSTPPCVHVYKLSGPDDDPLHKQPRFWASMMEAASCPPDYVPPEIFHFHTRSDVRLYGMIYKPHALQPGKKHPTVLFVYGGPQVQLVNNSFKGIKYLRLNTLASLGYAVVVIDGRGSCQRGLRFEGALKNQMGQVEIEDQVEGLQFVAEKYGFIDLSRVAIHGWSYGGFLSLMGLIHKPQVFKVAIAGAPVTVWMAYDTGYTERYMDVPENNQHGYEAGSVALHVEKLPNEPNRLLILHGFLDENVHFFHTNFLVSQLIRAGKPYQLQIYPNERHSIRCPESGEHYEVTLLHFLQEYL

Row | Structure (SMILES) | IC50 (Dipeptidyl peptidase 9) | IC50 (Dipeptidyl peptidase 8) | IC50 (Dipeptidyl peptidase 2) | IC50 (Dipeptidyl peptidase 4) | Ratio IC50 (Homo sapiens) | clearance [1] | half-life [2] | bioavailability [3] | bioavailability [5] | half-life [6] | IC50 [4]
1 | C[C@H](c1nc(-c2ccc(OC(F)(F)F)cc2)no1)[C@H](N)C(=O)N1CCCC1 | > 100 µM | > 100 µM | 5.2 µM | 1.79 µM |  |  |  |  |  |  | 
2 | C[C@H](c1nc(-c2ccccc2C(F)F)no1)[C@H](N)C(=O)N1CCCC1 | > 100 µM | > 100 µM | 1 µM | 1.82 µM |  |  |  |  |  |  | 
3 | C[C@H](c1nc(-c2ccc(NS(C)(=O)=O)cc2)no1)[C@H](N)C(=O)N1CCCC1 | > 100 µM | > 100 µM | 5.4 µM | 0.52 µM |  |  |  |  |  |  | 
4 | C[C@H](c1nc(-c2ccc(NS(C)(=O)=O)cc2Cl)no1)[C@H](N)C(=O)N1CCCC1 | > 100 µM | > 100 µM | 1.4 µM | 0.008 µM |  |  |  |  |  |  | 
5 | C[C@H](c1nc(-c2cccc(C(F)(F)F)c2)no1)[C@H](N)C(=O)N1CCCC1 | > 100 µM | > 100 µM | 4.3 µM | 15.6 µM |  |  |  |  |  |  | 
6 | C[C@H](c1nc(-c2ccc(Cl)cc2)no1)[C@H](N)C(=O)N1CCCC1 | > 100 µM | > 100 µM | 3.8 µM | 3.82 µM |  |  |  |  |  |  | 
7 | CS(=O)(=O)c1ccc(-c2noc([C@@H](CC3CC3)[C@H](N)C(=O)N3CC[C@H](F)C3)n2)c(Cl)c1 | > 100 µM | > 100 µM |  |  |  |  |  |  |  |  | 
8 | C[C@H](c1nc(-c2ccccc2)no1)[C@H](N)C(=O)N1CCCC1 | > 100 µM | > 100 µM | 5.7 µM | 19.7 µM |  |  |  |  |  |  | 
9 | C[C@H](c1nc(-c2ccc(S(C)(=O)=O)cc2Cl)no1)[C@H](N)C(=O)N1CCCC1 | > 100 µM | > 100 µM |  |  |  | 6 mL/min/kg | 0.82 h | 27% |  |  | 
10 | C[C@H](c1nc(-c2ccc(S(C)(=O)=O)cc2)no1)[C@H](N)C(=O)N1CCCC1 | > 100 µM | > 100 µM |  |  |  |  |  |  |  |  | 
11 | C[C@H](c1nc(-c2ccc(NS(C)(=O)=O)cc2Cl)no1)[C@H](N)C(=O)N1CC[C@H](F)C1 | > 100 µM | > 100 µM | 2.57 µM | 0.019 µM |  |  |  |  |  |  | 
12 | Cc1cc(S(C)(=O)=O)ccc1-c1noc([C@@H](CC2CC2)[C@H](N)C(=O)N2CC[C@H](F)C2)n1 | > 100 µM | > 100 µM | 2.92 µM | 0.031 µM |  |  |  |  |  |  | 
13 | C[C@H](c1nc(-c2ccc(S(N)(=O)=O)cc2)no1)[C@H](N)C(=O)N1CCCC1 | > 100 µM | > 100 µM | 26.8 µM | 0.19 µM |  |  |  |  |  |  | 
14 | C[C@H](c1nc(-c2ccccc2C(F)(F)F)no1)[C@H](N)C(=O)N1CCCC1 | > 100 µM | > 100 µM | 1.8 µM | 4.82 µM |  |  |  |  |  |  | 
15 | C[C@H](c1nc(-c2ccc(Cl)cc2Cl)no1)[C@H](N)C(=O)N1CCCC1.O=C(O)C(F)(F)F | > 100 µM | > 100 µM |  |  |  | 13.8 mL/min/kg | 2.71 h | 35% |  |  | 36.7 µM
16 | C[C@H](c1nc(-c2ccc(S(=O)(=O)C(F)(F)F)cc2)no1)[C@H](N)C(=O)N1CCCC1 | > 100 µM | > 100 µM | 24.4 µM | 0.33 µM |  |  |  |  |  |  | 
17 | CS(=O)(=O)c1ccc(-c2noc([C@@H](CCO)[C@H](N)C(=O)N3CC[C@H](F)C3)n2)c(Cl)c1 | > 100 µM | > 100 µM |  |  |  |  |  |  |  |  | 
18 | CS(=O)(=O)c1ccc(-c2noc([C@@H](CC3CC3)[C@H](N)C(=O)N3CC[C@H](F)C3)n2)c(F)c1.O=C(O)C(F)(F)F | > 100 µM | > 100 µM |  |  |  | 18.7 mL/min/kg | 1.3 h | 36% | 95% | 1.75 h | 58.5 µM

More lines, main results first:

Row | IC50 (Dipeptidyl peptidase 9) | IC50 (Dipeptidyl peptidase 8) | IC50 (Dipeptidyl peptidase 2) | IC50 (Dipeptidyl peptidase 4) | Ratio IC50 (Homo sapiens) | clearance [1] | half-life [2] | bioavailability [3] | bioavailability [5] | half-life [6] | Structure (SMILES) | IC50 [4]
19 | > 100 µM | > 100 µM | 0.85 µM | 0.56 µM |  |  |  |  |  |  | C[C@H](c1nnc(-c2ccc(Cl)cc2Cl)o1)[C@H](N)C(=O)N1CCCC1 | 
20 | > 100 µM | > 100 µM | 3.7 µM | 0.013 µM |  |  |  |  |  |  | CC(C)C[C@H](c1nc(-c2ccc(S(C)(=O)=O)cc2Cl)no1)[C@H](N)C(=O)N1CC[C@H](F)C1 | 
21 | > 100 µM | > 100 µM | 5.41 µM | 3.05 µM |  |  |  |  |  |  | C[C@H](c1n[nH]c(-c2ccc(Cl)cc2Cl)n1)[C@H](N)C(=O)N1CCCC1 | 
22 | > 100 µM | > 100 µM | 8.1 µM | 4.59 µM |  |  |  |  |  |  | C[C@H](c1nc(-c2ccc(F)cc2F)no1)[C@H](N)C(=O)N1CCCC1 | 
23 | > 100 µM | > 100 µM | 0.16 µM | 0.019 µM |  |  |  |  |  |  | C[C@H](c1nc(-c2ccc(NS(C)(=O)=O)cc2Cl)no1)[C@H](N)C(=O)N1CCC(F)(F)C1 | 
24 | > 100 µM | > 100 µM | 1.05 µM | 1.83 µM |  |  |  |  |  |  | C[C@H](c1nc(-c2ccc(Cl)cc2Cl)co1)[C@H](N)C(=O)N1CCCC1 | 
25 | > 100 µM | > 100 µM | 4.5 µM | 4.79 µM |  |  |  |  |  |  | C[C@H](c1nc(-c2ccccc2F)no1)[C@H](N)C(=O)N1CCCC1 | 
26 | > 100 µM | > 100 µM | 1.7 µM | 0.019 µM |  |  |  |  |  |  | C[C@H](c1nc(-c2ccc(NS(C)(=O)=O)cc2Cl)no1)[C@H](N)C(=O)N1CC[C@@H](F)C1 | 
27 | > 100 µM | > 100 µM | 2.5 µM | 12.4 µM |  |  |  |  |  |  | C[C@H](c1nc(-c2ccccc2OC(F)(F)F)no1)[C@H](N)C(=O)N1CCCC1 | 
28 | > 100 µM | > 100 µM | 1.3 µM | 0.16 µM |  |  |  |  |  |  | C[C@H](c1nc(-c2ccc(Br)cc2Cl)no1)[C@H](N)C(=O)N1CCCC1 | 
29 | > 100 µM | > 100 µM | 2.2 µM | 0.99 µM |  |  |  |  |  |  | C[C@H](c1nc(-c2ccccc2Cl)no1)[C@H](N)C(=O)N1CCCC1 | 
30 | > 100 µM | > 100 µM | 6 µM | 1.61 µM |  |  |  |  |  |  | C[C@H](c1nc(-c2ccc(C(F)(F)F)cc2)no1)[C@H](N)C(=O)N1CCCC1 | 
31 | > 100 µM | > 100 µM | 4.2 µM | 1.21 µM |  |  |  |  |  |  | C[C@H](c1noc(-c2ccc(Cl)cc2Cl)n1)[C@H](N)C(=O)N1CCCC1 | 
32 | > 100 µM | > 100 µM | 3 µM | 0.83 µM |  |  |  |  |  |  | C[C@H](c1nc(-c2ccc(F)cc2Cl)no1)[C@H](N)C(=O)N1CCCC1 | 
33 | > 100 µM | > 100 µM | 14.1 µM | 0.043 µM | > 320 |  |  |  |  |  | C[C@H](c1nc(-c2ccc(S(C)(=O)=O)cc2F)no1)[C@H](N)C(=O)N1CCCC1 | 
34 | > 100 µM | > 100 µM | 20.4 µM | 0.052 µM |  | 11.2 mL/min/kg | 1.8 h | 49% |  |  | CS(=O)(=O)c1ccc(-c2noc([C@@H](CC3CC3)[C@H](N)C(=O)N3CC[C@H](F)C3)n2)cc1.O=C(O)C(F)(F)F | 
35 | > 100 µM | > 100 µM |  |  |  |  |  |  |  |  | C[C@H](c1nc(-c2ccc(S(C)(=O)=O)cc2Cl)no1)[C@H](N)C(=O)N1CC[C@H](F)C1 | 
36 | > 100 µM | > 100 µM | 2.5 µM | 7.36 µM |  |  |  |  |  |  | C[C@H](c1nc(-c2cc(Cl)cc(Cl)c2)no1)[C@H](N)C(=O)N1CCCC1 | 
